The results in this text go back to patent US12624019B2, “Indazole derivative, and preparation method therefor and use thereof” (Leadingtac Pharmaceutical (Shaoxing) Co., Ltd., priority 2020, dated 2026).

One assay deals with T1, IRAK4 kinase (Homo sapiens, UniProt Q9NWZ3).
T1 sequence (Q9NWZ3 1-460): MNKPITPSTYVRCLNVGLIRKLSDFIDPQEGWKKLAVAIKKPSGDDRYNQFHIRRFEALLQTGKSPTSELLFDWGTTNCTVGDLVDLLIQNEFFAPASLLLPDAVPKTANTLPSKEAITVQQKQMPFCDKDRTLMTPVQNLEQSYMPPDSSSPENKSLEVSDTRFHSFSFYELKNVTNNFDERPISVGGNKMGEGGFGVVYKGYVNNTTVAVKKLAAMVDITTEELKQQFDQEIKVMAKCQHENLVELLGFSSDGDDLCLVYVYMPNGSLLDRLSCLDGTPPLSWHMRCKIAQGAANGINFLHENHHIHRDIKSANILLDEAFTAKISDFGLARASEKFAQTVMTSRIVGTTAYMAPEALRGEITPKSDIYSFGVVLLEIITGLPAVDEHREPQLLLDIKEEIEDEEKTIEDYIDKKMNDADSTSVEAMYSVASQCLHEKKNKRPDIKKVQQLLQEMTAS
Briefly: IRAK4 kinase activity test (KinEASE-STK HTRF kit). The conditions noted are these: IRAK4 kinase inhibition, 7 μM ATP, 37° C. 120 min. In kind it is biochemical. Here is the method:
KinEASE-STK Si serine/threonine kinase kit (Cisbio) was used to detect the inhibitory effect of the compound on IRAK4 kinase activity. The specific method was: the compound was dissolved in dimethyl sulfoxide, and then it was diluted with the buffer solution of the kit by equal gradient to make the final concentration range of the tested compound in the reaction system 10000 nM-0.038 nM, then 2.5 nM kinase, 1 μM biotinylated polypeptide substrate and 7 μM adenosine triphosphate (ATP) were added in sequence and incubated at 37° C. for 120 min. Subsequently, anti-phosphorylated serine/threonine antibody coupled with europium element compound and modified XL665 streptavidin were added to the reaction system to terminate the reaction. After incubating at room temperature for 1 h, the fluorescence intensity of each well at the emission wavelength of 620 nm and 665 nm and the excitation wavelength of 337 nm was determined in HTRF mode on the microplate reader EnVision (PerkinElmer), the ratio value was calculated using the formula Ratio=(665 nm/620 nm)×10^4. By comparing with the fluorescence intensity ratio of the control group, the inhibition rate of the compound at each concentration was calculated, and then the IC50 value of the compound was obtained by fitting the nonlinear curve with the logarithmic concentration-inhibition rate by GraphPad Prism 7.
(In general: In TR-FRET formats the signal depends on donor and acceptor labels being close together.)

In assay [1] the target is T2, IRAK4 kinase protein in THP-1 cells (Homo sapiens, UniProt Q9NWZ3).
T2 construct: endogenous in cells; host or cells: THP-1 cells
T2 sequence (Q9NWZ3 1-460): T1 sequence (Q9NWZ3 1-460)
Briefly: Degradation of IRAK4 in THP-1 cells by Western Blot. In kind it is cell-based. To be noted: 24 hours. As to the method:
Each well of the 24-well cell culture plate was inoculated with 0.95 mL THP-1 cells (stem cell bank of Chinese academy of sciences) with a cell density of 5×10^5 cells/well. The cell plate was placed in a 5% carbon dioxide incubator and cultured overnight at 37° C., then 50 μL compound in dimethyl sulfoxide was added. The final concentration of the compound was in the range of 1-3000 nM. After continuous cultivation for 24 hours, the cells were collected into a 1.5 mL centrifuge tube, centrifuged at 1000 rpm and 4° C. for 5 minutes. Cell precipitation was washed twice with 1×DPBS, resuspended cells were lysed with 200 μL lysate (cell lysate was Western and IP cell lysate (Beyotime), supplemented with 1 mM mixture of phenylmethylsulfonyl fluoride and protease inhibitor (Beyotime)), left on ice for 30 minutes, then centrifuged at 14000 g at 4° C. for 10 minutes, and the supernatant was taken to detect IRAK4 protein level by Western blot.
The total protein concentration in the supernatant of cell lysis was determined by BCA protein quantitative kit (Tiangen). According to the concentration of total protein detected by BCA, the supernatant was adjusted to […] with PBS and 5×SDS-PAGE protein loading buffer (Beyotime), bathed in water at 100° C. for 10 minutes, then placed in ice bath for 5 minutes, centrifuged at 14000 g and 4° C. for 5 minutes, and then collected as WB loading sample. Prefabricated glue (KeyGEN) was used for protein electrophoresis with a loading amount of 10 μL (total protein 2 μg). After Tris-MOPS-SDS electrophoresis solution (Adamas), 120V constant pressure electrophoresis was performed. After electrophoresis, the protein on the adhesive strip was transferred to PVDF membrane with a constant current of […] for 50 minutes. After the membrane was transferred, the membrane was added in 1×QuickBlock blocking buffer (Beyotime) and incubated for 30 minutes at room temperature. After blocking, PVDF membranes were incubated with IRAK4 primary antibody (Abcam) overnight at 4°, the membranes were washed with TBST buffer (2.4 g Tris, 8.8 g NaCl, 1.5 mL Tween 20, pH adjusted to 7.4, constant volume to 1 L) for 30 minutes, incubated with secondary antibody (Abcam) for 2 hours at room temperature, finally incubated with Clarity Western ECL Substrate (BIO-RAD) for 5 minutes for luminescence development, chemiluminescence imaging system (Clinx, chemiScope 6200 Touch) was used for development and protein mapping photography. The protein map was analyzed by Clinx chemiluminescence analysis software for grayscale values. Using the formula: grayscale correction value=(target protein grayscale value/corresponding internal reference grayscale value)×[…], the grayscale correction value of each sample was calculated. The degradation rate was calculated by comparing with the grayscale correction value of the control group. Furthermore, DC50 and Dmax values of the compound were obtained by the nonlinear curve fitting with the logarithmic concentration-inhibition rate by GraphPad Prism 7.

`CC(C)(O)c1cc2nn(C3CCN(CCCC4CCN(c5ccc6c(c5)C(=O)N(C5CCC(=O)NC5=O)C6=O)CC4)CC3)cc2cc1NC(=O)c1cccc(C(F)(F)F)n1` (centres unmarked) [Example 6, N-(2-(1-(3-(1-(2-(2,6-dioxopiperidin-3-yl)-1,3-dioxoisoindolin-5-yl)piperidin-4-yl)propyl)piperidin-4-yl)-6-(2-hydroxyprop-2-yl)-2H-indazol-5-yl)-6-(trifluoromethyl) pyridinecarboxamide] yielded an IC50 against IRAK4 kinase of 55.7 nM. Further, in assay [1] (IRAK4 degradation in THP-1 cells, read-out: WB DC50), the DC50 was determined as 11.9 nM. Moreover, the Dmax in assay [1] (IRAK4 degradation in THP-1 cells, read-out: WB Dmax) worked out at 90.9%. Moreover, the “WB D(%) (300 nM)” value in assay [1] (degradation percentage of IRAK4 in THP-1 cells, compound 300 nM) was determined as 89.5%. For the same compound, the “WB D(%) (1000 nM)” value in assay [1] (degradation percentage of IRAK4 in THP-1 cells, compound 1000 nM) was found to be 87.3%.

What is called IC50 is the concentration at which inhibition is half-maximal. The low end stands for greater potency in that assay, the high end for weaker potency in that assay. Usually DC50 stands for the concentration at which degradation of the target reaches its halfway point. For orientation: Dmax means the largest share of the target that was removed.
